Experiments:
Format in all cases: biochemical
[1] = target: JAK1-JH1JH2 (Homo sapiens (Human), UniProt P23458); test: Enzymatic inhibition assay (RapidFire HTMS), JAK1; conditions: 12.5 μM ATP, 200 μM substrate; read-out: JAK1-JH2JH1 IC50
Outline: (§1)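 Quenched with 0.5% TFA plus internal-standard peptide; phosphorylated product quantified by RapidFire C4 SPE–ESI-MS, 11-point 1:3 or 1:4 dilutions in duplicate.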

[2] = target: JAK3-JH1JH2 (Homo sapiens (Human), UniProt P52333); test: Enzymatic inhibition assay (RapidFire HTMS), JAK3; conditions: 150 μM ATP, 40 μM substrate
Chain of JAK3-JH1JH2 (P52333 512-1124): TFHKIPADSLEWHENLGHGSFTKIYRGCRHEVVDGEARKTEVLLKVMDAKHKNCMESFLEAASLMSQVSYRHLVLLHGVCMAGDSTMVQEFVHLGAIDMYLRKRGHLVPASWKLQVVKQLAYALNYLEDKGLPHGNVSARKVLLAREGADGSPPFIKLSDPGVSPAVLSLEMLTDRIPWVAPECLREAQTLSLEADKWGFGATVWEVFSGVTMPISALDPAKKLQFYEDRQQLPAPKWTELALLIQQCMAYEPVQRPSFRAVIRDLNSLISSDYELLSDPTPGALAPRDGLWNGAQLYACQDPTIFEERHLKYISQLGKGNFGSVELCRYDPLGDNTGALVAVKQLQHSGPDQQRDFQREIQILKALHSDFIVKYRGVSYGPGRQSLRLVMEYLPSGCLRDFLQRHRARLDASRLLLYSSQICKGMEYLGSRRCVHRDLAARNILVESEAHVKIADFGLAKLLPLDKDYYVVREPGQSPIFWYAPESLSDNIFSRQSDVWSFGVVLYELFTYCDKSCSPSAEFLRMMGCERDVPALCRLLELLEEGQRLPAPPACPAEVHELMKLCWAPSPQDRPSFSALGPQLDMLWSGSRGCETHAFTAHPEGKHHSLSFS
Outline: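 JAK3 JH1JH2 reaction incubated 45 min at 25 °C, then quenched with 0.5% TFA containing 0.15 μM internal standard peptide. Phosphopeptide product measured by RapidFire C4 SPE–ESI MS (positive mode); inhibition from product decrease versus uninhibited enzyme, 11-point 1:3 or 1:4 dilutions in duplicate.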

[3] = target: JAK2-JH1JH2 (Homo sapiens (Human), UniProt O60674); test: Enzymatic inhibition assay (RapidFire HTMS), JAK2; conditions: 30 μM ATP, 40 μM substrate
Chain of JAK2-JH1JH2 (O60674 532-1132): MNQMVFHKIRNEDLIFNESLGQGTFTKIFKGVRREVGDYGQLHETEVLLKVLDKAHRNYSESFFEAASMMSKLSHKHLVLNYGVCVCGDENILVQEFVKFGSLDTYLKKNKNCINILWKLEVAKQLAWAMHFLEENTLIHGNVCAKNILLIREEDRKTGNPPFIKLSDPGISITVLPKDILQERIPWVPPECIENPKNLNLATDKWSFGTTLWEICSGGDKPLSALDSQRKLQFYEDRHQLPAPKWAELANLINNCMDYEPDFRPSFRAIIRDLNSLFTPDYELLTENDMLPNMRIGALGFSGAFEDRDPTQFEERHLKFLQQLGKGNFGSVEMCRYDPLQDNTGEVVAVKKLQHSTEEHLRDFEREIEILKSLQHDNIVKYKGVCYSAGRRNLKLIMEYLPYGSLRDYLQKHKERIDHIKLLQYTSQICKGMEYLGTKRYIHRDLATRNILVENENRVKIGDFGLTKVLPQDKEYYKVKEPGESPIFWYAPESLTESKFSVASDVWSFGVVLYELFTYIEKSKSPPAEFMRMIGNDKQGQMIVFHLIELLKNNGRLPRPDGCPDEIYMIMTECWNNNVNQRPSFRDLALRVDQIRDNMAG
Outline: as §1

[4] = target: Tyk2-JH1JH2 (Homo sapiens (Human), UniProt P29597, C1142A/C936A); test: Enzymatic inhibition assay (RapidFire HTMS), Tyk2; conditions: 50 μM ATP, 200 μM substrate
Chain of Tyk2-JH1JH2 (P29597 580-1182 C936A/C1142A): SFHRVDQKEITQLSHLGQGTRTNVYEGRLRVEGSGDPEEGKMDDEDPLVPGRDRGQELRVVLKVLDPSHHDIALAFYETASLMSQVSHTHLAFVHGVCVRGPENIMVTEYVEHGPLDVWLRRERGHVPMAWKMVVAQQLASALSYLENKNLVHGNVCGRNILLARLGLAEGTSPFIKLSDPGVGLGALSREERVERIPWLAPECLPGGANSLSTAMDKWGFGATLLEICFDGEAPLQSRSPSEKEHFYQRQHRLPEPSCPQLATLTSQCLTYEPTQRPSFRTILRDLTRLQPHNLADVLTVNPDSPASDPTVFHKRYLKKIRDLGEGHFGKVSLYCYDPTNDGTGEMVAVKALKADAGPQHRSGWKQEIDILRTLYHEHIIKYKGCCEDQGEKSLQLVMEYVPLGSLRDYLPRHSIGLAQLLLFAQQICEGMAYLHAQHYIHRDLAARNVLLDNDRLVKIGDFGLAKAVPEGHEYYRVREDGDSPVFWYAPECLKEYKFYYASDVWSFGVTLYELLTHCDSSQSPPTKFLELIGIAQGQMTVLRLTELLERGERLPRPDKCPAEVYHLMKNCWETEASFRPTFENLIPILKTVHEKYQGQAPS
Outline: as §1

Chain of JAK1-JH1JH2 (P23458 574-1154): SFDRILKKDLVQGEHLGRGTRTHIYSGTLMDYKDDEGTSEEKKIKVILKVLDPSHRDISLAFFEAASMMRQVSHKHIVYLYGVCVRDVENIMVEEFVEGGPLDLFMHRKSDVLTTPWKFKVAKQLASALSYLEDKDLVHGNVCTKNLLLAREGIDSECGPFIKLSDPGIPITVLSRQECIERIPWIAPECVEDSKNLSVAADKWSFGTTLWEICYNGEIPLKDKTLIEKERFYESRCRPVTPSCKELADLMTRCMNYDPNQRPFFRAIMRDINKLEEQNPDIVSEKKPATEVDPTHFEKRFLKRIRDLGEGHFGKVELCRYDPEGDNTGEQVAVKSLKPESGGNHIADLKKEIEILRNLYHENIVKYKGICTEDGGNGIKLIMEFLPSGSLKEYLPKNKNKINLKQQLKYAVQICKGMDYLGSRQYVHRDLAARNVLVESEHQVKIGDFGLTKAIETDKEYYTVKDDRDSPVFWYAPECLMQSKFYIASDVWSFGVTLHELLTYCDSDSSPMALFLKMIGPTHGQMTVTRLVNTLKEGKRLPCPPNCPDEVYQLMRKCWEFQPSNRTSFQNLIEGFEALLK

| SMILES | IC50 [1] | IC50 [2] | IC50 [3] | IC50 [4] |
| --- | --- | --- | --- | --- |
| N#CC[C@H]1CC[C@H](n2c(C(=O)N3CCC(C#N)CC3)nc3cnc4[nH]ccc4c32)CC1 [Ex. 177, 1-(1-((1r,4r)-4-(Cyanomethyl)cyclohexyl)-1,6-dihydroimidazo[4,5-d]pyrrolo[2,3-b]pyridine-2-carbonyl)piperidine-4-carbonitrile] | 2.7 nM | 2370 nM | 161 nM | 102 nM |
| N#CC[C@H]1CC[C@H](n2c(C(=O)NC3CCOCC3)nc3cnc4[nH]ccc4c32)CC1 [Ex. 178, 1-((1r,4r)-4-(Cyanomethyl)cyclohexyl)-N-(tetrahydro-2H-pyran-4-yl)-1,6-dihydroimidazo[4,5-d]pyrrolo[2,3-b]pyridine-2-carboxamide] | 3.1 nM | 1310 nM | 60 nM | 42.2 nM |
| CC(C)(O)CNC(=O)Cc1nc2cnc3[nH]cc(Cl)c3c2n1[C@H]1CC[C@H](CC#N)CC1 [Ex. 188, 2-(8-chloro-1-((1r,4r)-4-(cyanomethyl)cyclohexyl)-1,6-dihydroimidazo[4,5-d]pyrrolo[2,3-b]pyridin-2-yl)-N-(2-hydroxy-2-methylpropyl)acetamide] | 3.2 nM | 13.1 nM | 36.7 nM | 122 nM |
| CC(C)(O)CNC(=O)Cc1nc2cnc3[nH]cc(Br)c3c2n1[C@H]1CC[C@H](CC#N)CC1 [Ex. 189, 2-(8-bromo-1-((1r,4r)-4-(cyanomethyl)cyclohexyl)-1,6-dihydroimidazo[4,5-d]pyrrolo[2,3-b]pyridin-2-yl)-N-(2-hydroxy-2-methylpropyl)acetamide] | 3.4 nM | 16.6 nM | 42.3 nM | 182 nM |
| Cc1c[nH]c2ncc3nc(CC(=O)NCC(C)(C)O)n([C@H]4CC[C@H](CC#N)CC4)c3c12 [Ex. 190, 2-(1-((1r,4r)-4-(cyanomethyl)cyclohexyl)-8-methyl-1,6-dihydroimidazo[4,5-d]pyrrolo[2,3-b]pyridin-2-yl)-N-(2-hydroxy-2-methylpropyl)acetamide] | 12.4 nM | 102 nM | 150 nM | 458 nM |
| Cc1cc2c(ncc3nc(CC(=O)NCC(C)(C)O)n([C@H]4CC[C@H](CC#N)CC4)c32)[nH]1 [Ex. 191, 2-(1-((1r,4r)-4-(Cyanomethyl)cyclohexyl)-7-methyl-1,6-dihydroimidazo[4,5-d]pyrrolo[2,3-b]pyridin-2-yl)-N-(2-hydroxy-2-methylpropyl)acetamide] | 1.3 nM | 1340 nM | 57.3 nM | 20.6 nM |
| COCCOCCOCCOCCc1nc2cnc3[nH]ccc3c2n1[C@H]1CC[C@H](CC#N)CC1 [Ex. 192, 2-((1r,4r)-4-(2-(2,5,8,11-Tetraoxatridecan-13-yl)imidazo[4,5-d]pyrrolo[2,3-b]pyridin-1(6H)-yl)cyclohexyl)acetonitrile] | 1 nM | 1120 nM | 69 nM | 25.8 nM |
| N#CC[C@H]1CC[C@H](n2c(CC(=O)NCCOCCOCCN)nc3cnc4[nH]ccc4c32)CC1 [Ex. 193, N-(2-(2-(2-Aminoethoxy)ethoxy)ethyl)-2-(1-((1r,4r)-4-(cyanomethyl)cyclohexyl)-1,6-dihydroimidazo[4,5-d]pyrrolo[2,3-b]pyridin-2-yl)acetamide] | 0.2 nM | 69.5 nM | 10.1 nM | 5.3 nM |
| N#CC[C@H]1CC[C@H](n2c(CC(=O)N3CCC[C@H]3CO)nc3cnc4[nH]ccc4c32)CC1 [Ex. 195, 2-((1S,4r)-4-(2-(2-((S)-2-(hydroxymethyl)pyrrolidin-1-yl)-2-oxoethyl)imidazo[4,5-d]pyrrolo[2,3-b]pyridin-1(6H)-yl)cyclohexyl)acetonitrile] | 3.3 nM | 294 nM | 33.7 nM | 11 nM |
| N#CC[C@H]1CC[C@H](n2c(COC(=O)NC34CC5CC(CC(C5)C3)C4)nc3cnc4[nH]ccc4c32)CC1 [Ex. 196, (1-((1r,4r)-4-(Cyanomethyl)cyclohexyl)-1,6-dihydroimidazo[4,5-d]pyrrolo[2,3-b]pyridin-2-yl)methyl (3S,5S,7S)-adamantan-1-ylcarbamate] | 3.4 nM | 660 nM | 41.4 nM | 41.8 nM |
| COC1CCN(C(=O)Cc2nc3cnc4[nH]ccc4c3n2[C@H]2CC[C@H](CC#N)CC2)CC1 [Ex. 197, 2-((1r,4r)-4-(2-(2-(4-Methoxypiperidin-1-yl)-2-oxoethyl)imidazo[4,5-d]pyrrolo[2,3-b]pyridin-1(6H)-yl)cyclohexyl)acetonitrile] | < 4 nM | 132 nM | 15.5 nM | 6.2 nM |

More lines, now with the values ahead:

| IC50 [1] | IC50 [2] | IC50 [3] | IC50 [4] | SMILES |
| --- | --- | --- | --- | --- |
| 2.5 nM | 839 nM | 27.8 nM | 49.5 nM | N#CC[C@H]1CC[C@H](n2c(C(=O)NC3CC3)nc3cnc4[nH]ccc4c32)CC1 [Ex. 175, 1-((1r,4r)-4-(Cyanomethyl)cyclohexyl)-N-cyclopropyl-1,6-dihydroimidazo[4,5-d]pyrrolo[2,3-b]pyridine-2-carboxamide] |
| 2.6 nM | 3250 nM | 157 nM | 127 nM | COC1CCN(C(=O)c2nc3cnc4[nH]ccc4c3n2[C@H]2CC[C@H](CC#N)CC2)CC1 [Ex. 176, 2-((1r,4r)-4-(2-(4-Methoxypiperidine-1-carbonyl)imidazo[4,5-d]pyrrolo[2,3-b]pyridin-1(6H)-yl)cyclohexyl)acetonitrile] |
| 1.4 nM | 641 nM | 20.9 nM | 30 nM | COCC(C)NC(=O)c1nc2cnc3[nH]ccc3c2n1[C@H]1CC[C@H](CC#N)CC1 (stereo partly drawn) [Ex. 179, 1-((1r,4r)-4-(Cyanomethyl)cyclohexyl)-N-(1-methoxypropan-2-yl)-1,6-dihydroimidazo[4,5-d]pyrrolo[2,3-b]pyridine-2-carboxamide] |
| 3.4 nM | 2290 nM | 149 nM | 129 nM | N#CC[C@H]1CC[C@H](n2c(C(=O)N3CCOCC3)nc3cnc4[nH]ccc4c32)CC1 [Ex. 180, 2-((1r,4r)-4-(2-(Morpholine-4-carbonyl)imidazo[4,5-d]pyrrolo[2,3-b]pyridin-1(6H)-yl)cyclohexyl)acetonitrile] |
| 5.4 nM | 6300 nM | 331 nM | 159 nM | N#CC[C@H]1CC[C@H](n2c(C(=O)N3CCC(O)CC3)nc3cnc4[nH]ccc4c32)CC1 [Ex. 181, 2-((1r,4r)-4-(2-(4-Hydroxypiperidine-1-carbonyl)imidazo[4,5-d]pyrrolo[2,3-b]pyridin-1(6H)-yl)cyclohexyl)acetonitrile] |
| 2.8 nM | 276 nM | 24.3 nM | 52.5 nM | CCOC(=O)Cn1cc(-c2nc3cnc4[nH]ccc4c3n2[C@H]2CC[C@H](CC#N)CC2)cn1 [Ex. 182, Ethyl 2-(4-(1-((1r,4r)-4-(cyanomethyl)cyclohexyl)-1,6-dihydroimidazo[4,5-d]pyrrolo[2,3-b]pyridin-2-yl)-1H-pyrazol-1-yl)acetate] |
| 4.3 nM | 645 nM | 52.9 nM | 118 nM | Cc1nc(C)c(-c2nc3cnc4[nH]ccc4c3n2[C@H]2CC[C@H](CC#N)CC2)o1 [Ex. 183, 2-((1r,4r)-4-(2-(2,4-dimethyloxazol-5-yl)imidazo[4,5-d]pyrrolo[2,3-b]pyridin-1(6H)-yl)cyclohexyl)acetonitrile] |
| 25.5 nM | 1230 nM | 230 nM | 319 nM | Cc1nc(C)c(-c2nc3cnc4[nH]ccc4c3n2[C@H]2CC[C@H](CC#N)CC2)s1 [Ex. 184, 2-((1r,4r)-4-(2-(2,4-dimethylthiazol-5-yl)imidazo[4,5-d]pyrrolo[2,3-b]pyridin-1(6H)-yl)cyclohexyl)acetonitrile] |
| 2.1 nM | 150 nM | 19.8 nM | 36.4 nM | N#CC[C@H]1CC[C@H](n2c(-c3cnn(CC(=O)NC4CC4)c3)nc3cnc4[nH]ccc4c32)CC1 [Ex. 185, 2-(4-(1-((1r,4r)-4-(Cyanomethyl)cyclohexyl)-1,6-dihydroimidazo[4,5-d]pyrrolo[2,3-b]pyridin-2-yl)-1H-pyrazol-1-yl)-N-cyclopropylacetamide] |
| 3.7 nM | 4650 nM | 82.2 nM | 254 nM | N#CC[C@H]1CC[C@H](n2c(-c3cccnc3N)nc3cnc4[nH]ccc4c32)CC1 [Ex. 186, 2-((1r,4r)-4-(2-(2-aminopyridin-3-yl)imidazo[4,5-d]pyrrolo[2,3-b]pyridin-1(6H)-yl)cyclohexyl)acetonitrile] |
| 1.3 nM | 180 nM | 24.6 nM | 60 nM | CC(C)(O)Cn1cc(-c2nc3cnc4[nH]ccc4c3n2[C@H]2CC[C@H](CC#N)CC2)cn1 [Ex. 187, 2-((1r,4r)-4-(2-(1-(2-Hydroxy-2-methylpropyl)-1H-pyrazol-4-yl)imidazo[4,5-d]pyrrolo[2,3-b]pyridin-1(6H)-yl)cyclohexyl)acetonitrile] |
| 9.4 nM | 1460 nM | 133 nM | 72.5 nM | COCCOCCOCc1nc2cnc3[nH]ccc3c2n1[C@H]1CC[C@H](CC#N)CC1 [Ex. 194, 2-((1r,4r)-4-(2-((2-(2-methoxyethoxy)ethoxy)methyl)imidazo[4,5-d]pyrrolo[2,3-b]pyridin-1(6H)-yl)cyclohexyl)acetonitrile] |
| < 4 nM | 24.4 nM | 2.1 nM | 1.2 nM | CNC(=O)Cc1nc2cnc3[nH]ccc3c2n1[C@H]1CC[C@H](CC#N)CC1 [Ex. 198, 2-(1-((1r,4r)-4-(Cyanomethyl)cyclohexyl)-1,6-dihydroimidazo[4,5-d]pyrrolo[2,3-b]pyridin-2-yl)-N-methylacetamide] |
